Laboratory results: PubChem BioAssay AID1963447 (Molecular Pharmacology Branch, DTP, NCI, 2024)

System: 885512-296-R-J2-PDC complex spheroid growth, % test/control
Assay: Anticancer human tumor 885512-296-R-J2-PDC patient-derived breast carcinoma cell line growth inhibition [Asc]
Conditions: for IC50: curve of first compound; for viability, T/C: stronger effect = lower value
Method in brief: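 Tumor cells were grown as multicellular spheroids with stromal HUVEC and mesenchymal stem cells and treated singly or in combination. Concentrations fell in half-log steps from the clinical Cmax, or from 10 microM where none was known.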

[1] = second compound 0.01 µM, first compound 0.00316 µM
[2] = second compound 0.01 µM, first compound 0.01 µM
[3] = second compound 0.01 µM, first compound 0.0316 µM
[4] = second compound 0.01 µM, first compound 0.1 µM
[5] = second compound 0.0316 µM, first compound 0.00316 µM
[6] = second compound 0.0316 µM, first compound 0.01 µM
[7] = second compound 0.0316 µM, first compound 0.0316 µM
[8] = second compound 0.0316 µM, first compound 0.1 µM
[9] = second compound 0.1 µM, first compound 0.00316 µM
[10] = second compound 0.1 µM, first compound 0.01 µM
[11] = second compound 0.1 µM, first compound 0.0316 µM
[12] = second compound 0.1 µM, first compound 0.1 µM
[13] = second compound 0.316 µM, first compound 0.00316 µM
[14] = second compound 0.316 µM, first compound 0.01 µM
[15] = second compound 0.316 µM, first compound 0.0316 µM
[16] = second compound 0.316 µM, first compound 0.1 µM
[17] = second compound 1 µM, first compound 0.00316 µM
[18] = second compound 1 µM, first compound 0.01 µM
[19] = second compound 1 µM, first compound 0.0316 µM
[20] = second compound 1 µM, first compound 0.1 µM
[21] = second compound 0.01 µM, first compound 0.316 µM
[22] = second compound 0.01 µM, first compound 1 µM
[23] = second compound 0.0316 µM, first compound 0.316 µM
[24] = second compound 0.0316 µM, first compound 1 µM
[25] = second compound 0.1 µM, first compound 0.316 µM
[26] = second compound 0.1 µM, first compound 1 µM
[27] = second compound 0.316 µM, first compound 0.316 µM
[28] = second compound 0.316 µM, first compound 1 µM
[29] = second compound 1 µM, first compound 0.316 µM
[30] = second compound 1 µM, first compound 1 µM
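Also: spheroids exposed to compounds for seven days.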
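For viability, T/C in this document: 100% = DMSO vehicle control wells.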

Structure (SMILES): Cc1nc(N2CCC3(CC2)COC(C)C3N)c(CO)nc1Sc1ccnc(N)c1Cl (stereo not given) + CCN1C(C(=O)NC23CCC(C(=O)O)(CC2)CC3)C(c2cccc(Cl)c2F)C2(C(=O)Nc3cc(Cl)ccc32)C12CCCCC2
- IC50 (second compound 0.03 µM): 361 nM
- IC50 (second compound 0.0949 µM): 134 nM
- IC50 (second compound 0.3 µM): 165 nM
- IC50 (second compound 0.949 µM): 59.8 nM
- IC50 (second compound 3 µM): < 9.49 nM
- viability, T/C (second compound 0.03 µM, first compound 0.00949 µM): 90.6%
- viability, T/C (second compound 0.03 µM, first compound 0.03 µM): 79%
- viability, T/C (second compound 0.03 µM, first compound 0.0949 µM): 59.8%
- viability, T/C (second compound 0.03 µM, first compound 0.3 µM): 51.6%
- viability, T/C (second compound 0.03 µM, first compound 0.949 µM): 45.2%
- viability, T/C (second compound 0.03 µM, first compound 3 µM): 35.4%
- viability, T/C (second compound 0.0949 µM, first compound 0.00949 µM): 96.5%
- viability, T/C (second compound 0.0949 µM, first compound 0.03 µM): 78.9%
- viability, T/C (second compound 0.0949 µM, first compound 0.0949 µM): 51.2%
- viability, T/C (second compound 0.0949 µM, first compound 0.3 µM): 45.4%
- viability, T/C (second compound 0.0949 µM, first compound 0.949 µM): 41.3%
- viability, T/C (second compound 0.0949 µM, first compound 3 µM): 35.5%
- viability, T/C (second compound 0.3 µM, first compound 0.00949 µM): 82.3%
- viability, T/C (second compound 0.3 µM, first compound 0.03 µM): 60.2%
- viability, T/C (second compound 0.3 µM, first compound 0.0949 µM): 51.6%
- viability, T/C (second compound 0.3 µM, first compound 0.3 µM): 53.1%
- viability, T/C (second compound 0.3 µM, first compound 0.949 µM): 42.8%
- viability, T/C (second compound 0.3 µM, first compound 3 µM): 36.9%
- viability, T/C (second compound 0.949 µM, first compound 0.00949 µM): 59.3%
- viability, T/C (second compound 0.949 µM, first compound 0.03 µM): 51.1%
- viability, T/C (second compound 0.949 µM, first compound 0.0949 µM): 46.9%
- viability, T/C (second compound 0.949 µM, first compound 0.3 µM): 46.2%
- viability, T/C (second compound 0.949 µM, first compound 0.949 µM): 39.1%
- viability, T/C (second compound 0.949 µM, first compound 3 µM): 35.2%
- viability, T/C (second compound 3 µM, first compound 0.00949 µM): 39.3%
- viability, T/C (second compound 3 µM, first compound 0.03 µM): 35%
- viability, T/C (second compound 3 µM, first compound 0.0949 µM): 28.1%
- viability, T/C (second compound 3 µM, first compound 0.3 µM): 32%
- viability, T/C (second compound 3 µM, first compound 0.949 µM): 30.3%
- viability, T/C (second compound 3 µM, first compound 3 µM): 27.1%

Structure (SMILES): Cn1ncnc1[C@H]1c2n[nH]c(=O)c3cc(F)cc(c23)N[C@@H]1c1ccc(F)cc1 + CNC(C)C(=O)NC1CN(S(=O)(=O)c2cccc(S(=O)(=O)N3CCC4CCC(C(=O)NC(c5ccccc5)c5ccccc5)N4C(=O)C(NC(=O)C(C)NC)C3)c2)CCC2CCC(C(=O)NC(c3ccccc3)c3ccccc3)N2C1=O
- IC50 (second compound 0.01 µM): 26.2 nM
- IC50 (second compound 0.0316 µM): 17.6 nM
- IC50 (second compound 0.1 µM): 23.4 nM
- IC50 (second compound 0.316 µM): 15.3 nM
- IC50 (second compound 1 µM): 21.3 nM
- viability, T/C (second compound 0.01 µM, first compound 0.000316 µM): 86%
- viability, T/C (second compound 0.01 µM, first compound 0.001 µM): 71.1%
- viability, T/C [1]: 73.5%
- viability, T/C [2]: 63.4%
- viability, T/C [3]: 47.7%
- viability, T/C [4]: 26.2%
- viability, T/C (second compound 0.0316 µM, first compound 0.000316 µM): 98.5%
- viability, T/C (second compound 0.0316 µM, first compound 0.001 µM): 96.5%
- viability, T/C [5]: 92.3%
- viability, T/C [6]: 60.5%
- viability, T/C [7]: 40.1%
- viability, T/C [8]: 31.2%
- viability, T/C (second compound 0.1 µM, first compound 0.000316 µM): 102%
- viability, T/C (second compound 0.1 µM, first compound 0.001 µM): 100%
- viability, T/C [9]: 90.8%
- viability, T/C [10]: 70.5%
- viability, T/C [11]: 42.9%
- viability, T/C [12]: 22.4%
- viability, T/C (second compound 0.316 µM, first compound 0.000316 µM): 98%
- viability, T/C (second compound 0.316 µM, first compound 0.001 µM): 100%
- viability, T/C [13]: 94.6%
- viability, T/C [14]: 56%
- viability, T/C [15]: 42.4%
- viability, T/C [16]: 27.6%
- viability, T/C (second compound 1 µM, first compound 0.000316 µM): 108%
- viability, T/C (second compound 1 µM, first compound 0.001 µM): 97.1%
- viability, T/C [17]: 98.2%
- viability, T/C [18]: 65.6%
- viability, T/C [19]: 42.5%
- viability, T/C [20]: 26.2%

Structure (SMILES): O=C(c1cc(Cc2n[nH]c(=O)c3ccccc23)ccc1F)N1CCN(C(=O)C2CC2)CC1 + CNC(C)C(=O)NC1CN(S(=O)(=O)c2cccc(S(=O)(=O)N3CCC4CCC(C(=O)NC(c5ccccc5)c5ccccc5)N4C(=O)C(NC(=O)C(C)NC)C3)c2)CCC2CCC(C(=O)NC(c3ccccc3)c3ccccc3)N2C1=O
- IC50 (second compound 0.01 µM): 4110 nM
- IC50 (second compound 0.0316 µM): 2960 nM
- IC50 (second compound 0.1 µM): 3930 nM
- IC50 (second compound 0.316 µM): 3850 nM
- IC50 (second compound 1 µM): 3630 nM
- viability, T/C [3]: 95.6%
- viability, T/C [4]: 96.4%
- viability, T/C [21]: 95.6%
- viability, T/C [22]: 94.5%
- viability, T/C (second compound 0.01 µM, first compound 3.16 µM): 60.7%
- viability, T/C (second compound 0.01 µM, first compound 10 µM): 13.5%
- viability, T/C [7]: 97.1%
- viability, T/C [8]: 101%
- viability, T/C [23]: 99.6%
- viability, T/C [24]: 84%
- viability, T/C (second compound 0.0316 µM, first compound 3.16 µM): 48.2%
- viability, T/C (second compound 0.0316 µM, first compound 10 µM): 14.4%
- viability, T/C [11]: 97.9%
- viability, T/C [12]: 98.2%
- viability, T/C [25]: 106%
- viability, T/C [26]: 86.2%
- viability, T/C (second compound 0.1 µM, first compound 3.16 µM): 59.8%
- viability, T/C (second compound 0.1 µM, first compound 10 µM): 10.6%
- viability, T/C [15]: 101%
- viability, T/C [16]: 106%
- viability, T/C [27]: 102%
- viability, T/C [28]: 89.3%
- viability, T/C (second compound 0.316 µM, first compound 3.16 µM): 58.1%
- viability, T/C (second compound 0.316 µM, first compound 10 µM): 12%
- viability, T/C [19]: 96.1%
- viability, T/C [20]: 97.8%
- viability, T/C [29]: 95.4%
- viability, T/C [30]: 87.2%
- viability, T/C (second compound 1 µM, first compound 3.16 µM): 55%
- viability, T/C (second compound 1 µM, first compound 10 µM): 13.1%

Structure (SMILES): O=C(c1ccc(F)c(F)c1Nc1ccc(I)cc1F)N1CC(O)([C@@H]2CCCCN2)C1 + CNC(C)C(=O)NC1CN(S(=O)(=O)c2cccc(S(=O)(=O)N3CCC4CCC(C(=O)NC(c5ccccc5)c5ccccc5)N4C(=O)C(NC(=O)C(C)NC)C3)c2)CCC2CCC(C(=O)NC(c3ccccc3)c3ccccc3)N2C1=O
- IC50 (second compound 0.01 µM): 94 nM
- IC50 (second compound 0.0316 µM): 107 nM
- IC50 (second compound 0.1 µM): 112 nM
- IC50 (second compound 0.316 µM): 126 nM
- IC50 (second compound 1 µM): 159 nM
- viability, T/C [1]: 92.1%
- viability, T/C [2]: 80.5%
- viability, T/C [3]: 59%
- viability, T/C [4]: 50.2%
- viability, T/C [21]: 37.5%
- viability, T/C [22]: 15.1%
- viability, T/C [5]: 98.3%
- viability, T/C [6]: 84.3%
- viability, T/C [7]: 78%
- viability, T/C [8]: 48%
- viability, T/C [23]: 32%
- viability, T/C [24]: 16.6%
- viability, T/C [9]: 99.5%
- viability, T/C [10]: 95.8%
- viability, T/C [11]: 78.6%
- viability, T/C [12]: 47.8%
- viability, T/C [25]: 35.1%
- viability, T/C [26]: 15.9%
- viability, T/C [13]: 102%
- viability, T/C [14]: 99.5%
- viability, T/C [15]: 82.5%
- viability, T/C [16]: 53.8%
- viability, T/C [27]: 31.4%
- viability, T/C [28]: 16.5%
- viability, T/C [17]: 103%
- viability, T/C [18]: 96.2%
- viability, T/C [19]: 89.7%
- viability, T/C [20]: 60.9%
- viability, T/C [29]: 32.8%
- viability, T/C [30]: 16.8%
